SMILES strings stand for the structures.

For one data set, the system named is buffaloes. The data set is described as follows: Example 3: vinegar, dilute acetic acid or acidified sodium acetate, no control group, buffaloes. As to the method: (§1) The first study was conducted in a population primarily comprising cows and buffaloes. […] Equal number of animals were used in the standard/control group for comparison. The animals were in the study group were allowed to undergo one insemination. Thereafter, i.e. within 35-50 minutes, the material prepared according to the process described in Example 1 was administered to the animals in the study group. The animals in the control/standard group were not subject to administration of any material. Mating or insemination was not controlled. All the animals were allowed to move freely in their usual environment and were kept on normal diet. Their behavior and temperature/temperament especially of the study group. was monitored.
(§2) These animals were administered vinegar, dilute acetic acid, and sodium acetate solution in acidic pH separately.

In the next data set the test system is cows. Briefly: Example 3: vinegar, dilute acetic acid or acidified sodium acetate, no control group, cows. As to the method: as §1, §2
A further data set concerns cows and buffaloes. The data set is described as follows: Example 3: totals for cows and buffaloes together. As to the method:
as §1, §2

Regarding `CC(=O)O` [Acetic Acid dilute, acetic acid], in the data set with buffaloes, the Animals not conceived came out at 3, the “No. of Miscarriages” value was “Nil”, the “OFFSPRING Females” value amounted to 11 and the “OFFSPRING Males” value is “Nil”. Moreover, in the data set on cows (cows, no control group), the “OFFSPRING Females” value was 6 and the “OFFSPRING Males” value is listed as “Nil”. Moreover, the Animals not conceived with cows (female, cows, in vivo) came out at 2. Further, the “No. of Miscarriages” value with cows (in vivo) is given as “Nil”. In the data set on cows and buffaloes (cows and buffaloes together), the female offsprings delivered came to 17 and the “share of female offsprings” value was determined as 100%. The “animals that did not conceive” value with cows and buffaloes (female, cows and buffaloes, in vivo) was 5. The “animals that reported miscarriage” value with cows and buffaloes (in vivo) was “no animals reported miscarriage”.

For `CC(=O)[O-].[Na+]` [Sodium Acetate Acidified, sodium acetate], in the data set with buffaloes, the Animals not conceived amounted to 2, the “No. of Miscarriages” value is “Nil”, the “OFFSPRING Females” value was 8 and the “OFFSPRING Males” value was “Nil”. In the data set on cows (cows, no control group), the Animals not conceived is given as 1, the “No. of Miscarriages” value is listed as “Nil”, the “OFFSPRING Females” value came to 4 and the “OFFSPRING Males” value is recorded as “Nil”. In the data set on cows and buffaloes (cows and buffaloes together), the “animals that did not conceive” value was found to be 3, the female offsprings delivered is 12 and the “share of female offsprings” value was found to be 100%.

The values above are taken from patent US7351581B2, “In vivo method for producing female offsprings in bovines” (priority 2000, dated 2008).
